Results on 15 molecules are retold here after PMC9780857 (International Journal of Molecular Sciences, 2022).

Where two headings read alike, the source gives them in different places.

Data set [1] deals with T1, hOCT2 (Homo sapiens, UniProt O15244).
T1 sequence (O15244 1-555): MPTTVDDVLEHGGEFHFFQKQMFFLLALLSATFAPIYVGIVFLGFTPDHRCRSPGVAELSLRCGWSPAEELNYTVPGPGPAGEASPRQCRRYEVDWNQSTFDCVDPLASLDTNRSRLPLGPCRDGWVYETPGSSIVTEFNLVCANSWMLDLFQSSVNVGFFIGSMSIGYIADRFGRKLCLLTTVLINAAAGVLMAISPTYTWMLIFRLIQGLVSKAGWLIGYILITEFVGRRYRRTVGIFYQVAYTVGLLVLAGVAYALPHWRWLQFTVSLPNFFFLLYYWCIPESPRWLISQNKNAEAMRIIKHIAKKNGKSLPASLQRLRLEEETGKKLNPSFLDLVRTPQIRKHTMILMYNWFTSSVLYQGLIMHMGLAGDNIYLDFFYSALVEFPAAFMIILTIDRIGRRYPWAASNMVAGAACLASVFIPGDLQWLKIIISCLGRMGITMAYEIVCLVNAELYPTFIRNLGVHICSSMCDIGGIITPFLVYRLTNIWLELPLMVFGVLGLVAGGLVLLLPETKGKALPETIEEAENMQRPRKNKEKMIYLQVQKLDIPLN
Nature of the data set: Inhibition of hOCT2-mediated 14C-metformin uptake in transfected HEK293 cells. Format: cell-based. Set-up: expressed in transfected cells; host or cells: HEK293 (stably transfected). Here is the method: (§1) The uptake assays were performed as previously described in 24-well plates. […] After incubation, the uptake was stopped by aspirating the reaction mixture and washing the cells three times with 0.4 mL ice-cold PBS buffer. Cells were then solubilized with 0.6 mL of 1 N NaOH, overnight. The whole content of each well (0.6 mL) was transferred to a scintillation vial (Perkin Elmer). The radio-labelled amount was determined by liquid scintillation counting.
(§2) All inhibition experiments were conducted on at least two separate days in triplicate.
(§3) For screening experiments, cis-inhibition was carried out in duplicate by measuring the uptake of the labeled probe substrate in the absence and presence of 10 µM or 100 µM of the respective pesticide or drug. […] Inhibitory effects in percent were calculated from net-uptake. […]

Data set [2] concerns the target T2, mOct2 (Mus musculus, UniProt O70577).
T2 sequence (O70577 1-553): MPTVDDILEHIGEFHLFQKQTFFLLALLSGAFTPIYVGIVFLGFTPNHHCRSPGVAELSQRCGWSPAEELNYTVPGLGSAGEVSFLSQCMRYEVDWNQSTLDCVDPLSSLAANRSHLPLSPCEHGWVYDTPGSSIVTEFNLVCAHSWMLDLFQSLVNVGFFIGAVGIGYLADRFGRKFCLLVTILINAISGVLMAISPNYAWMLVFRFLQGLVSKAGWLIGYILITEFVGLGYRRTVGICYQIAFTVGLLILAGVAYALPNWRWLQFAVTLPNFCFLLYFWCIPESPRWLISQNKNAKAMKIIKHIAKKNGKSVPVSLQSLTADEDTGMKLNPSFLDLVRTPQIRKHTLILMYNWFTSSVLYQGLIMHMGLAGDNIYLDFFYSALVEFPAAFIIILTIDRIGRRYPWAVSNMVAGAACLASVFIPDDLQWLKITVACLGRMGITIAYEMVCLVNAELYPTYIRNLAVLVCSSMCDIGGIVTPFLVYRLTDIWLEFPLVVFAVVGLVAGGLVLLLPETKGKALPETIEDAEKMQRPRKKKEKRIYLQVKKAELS
Nature of the data set: Inhibition of mOct2-mediated 14C-metformin uptake in transfected HEK293 cells. Format: cell-based. Set-up: expressed in transfected cells; host or cells: HEK293 (stably transfected). As for the experimental part:
as §1, §2, §3

Data set [3] deals with T2, mOct2. Nature of the data set: Inhibition of mOct2-mediated 3H-MPP uptake in transfected HEK293 cells. The format is cell-based. Set-up: expressed in transfected cells; host or cells: HEK293 (stably transfected). Here is the method: (§4) With cDNA of hOCT2 (GeneBank: accession number: NM_003058.3) or mOct2 (NM_013667.2), stably overexpressing HEK293 cells were used for the experiments and empty vector-transfected HEK cells were used as control-HEK cells.
(§5) The uptake assays were performed as previously described in 24-well plates. Therefore, culture medium was aspirated, and each well was rinsed three times with 0.5 mL incubation buffer (HBSS supplemented with 20 mM HEPES, pH 7.4) and then incubated in 200 µL dosing solution containing ^3H-MPP or ^14C-metformin and the test compound. After incubation, the uptake was stopped by aspirating the reaction mixture and washing the cells three times with 0.4 mL ice-cold PBS buffer. Cells were then solubilized with 0.6 mL of 1 N NaOH, overnight. The whole content of each well (0.6 mL) was transferred to a scintillation vial (Perkin Elmer). The radio-labelled amount was determined by liquid scintillation counting.
(§6) […]. All inhibition experiments were conducted on at least two separate days in triplicate.
(§7) The Km and Vmax values were obtained using SigmaPlot version 13 by fitting the Michaelis–Menten equation V = Vmax*[S]/(Km + [S]), where V refers to the rate of substrate transport, Vmax refers to the maximum rate of substrate transport, [S] refers to the concentration of substrate, and Km is defined as the concentration of substrate at the half-maximal transport rate.

Data set [4] addresses T1, hOCT2. Nature of the data set: Inhibition of hOCT2-mediated 3H-MPP uptake in transfected HEK293 cells. Format: cell-based. Set-up: expressed in transfected cells; host or cells: HEK293 (stably transfected). As for the experimental part: as §4, §5, §6, §7
Substrate in data set [5]: C[n+]1ccc(-c2ccccc2)cc1
Description: cells, lysate or membranes. Particulars: other: substrate, metformin 2 min, MPP 1 min, 37 °C, pH 7.4.

[6] abbreviates: HEK293, 10 µM test compound; 1 µM [14C]metformin, 2 min, HEK293; negative = stimulation; read-out: Inhibitory Effects (%) hOCT2 10 µM Mean.
Where [7] appears, read: HEK293, 100 µM test compound; 1 µM [14C]metformin, 2 min, HEK293; negative = stimulation; read-out: Inhibitory Effects (%) hOCT2 100 µM Mean.
Where [8] appears, read: HEK293, 10 µM test compound; 1 µM [14C]metformin, 2 min, HEK293; negative = stimulation; read-out: Inhibitory Effects (%) mOct2 10 µM Mean.
Where [9] appears, read: HEK293, 100 µM test compound; 1 µM [14C]metformin, 2 min, HEK293; negative = stimulation; read-out: Inhibitory Effects (%) mOct2 100 µM Mean.
The mark [10] stands for this setting: HEK293, read-out: Inhibitory Effects (%) hOCT2 10 µM Mean.
Where [11] appears, read: HEK293, read-out: Inhibitory Effects (%) hOCT2 100 µM Mean.
Setting [12] is: HEK293, read-out: Inhibitory Effects (%) mOct2 10 µM Mean.
Where [13] appears, read: HEK293, read-out: Inhibitory Effects (%) mOct2 100 µM Mean.
Setting [14] is: 10 µM test compound; 1 µM [14C]metformin, 2 min, HEK293; negative = stimulation.
[15] abbreviates: 100 µM test compound; 1 µM [14C]metformin, 2 min, HEK293; negative = stimulation.
Where [16] appears, read: HEK293; read-out: Inhibitory Effects (%) hOCT2 10 µM Mean.
[17] abbreviates: HEK293; read-out: Inhibitory Effects (%) hOCT2 100 µM Mean.
[18] abbreviates: HEK293; read-out: Inhibitory Effects (%) mOct2 10 µM Mean.
[19] abbreviates: HEK293; read-out: Inhibitory Effects (%) mOct2 100 µM Mean.

Consider `CCCCc1oc2ccccc2c1C(=O)c1cc(I)c(OCCN(CC)CC)c(I)c1` [Amiodarone], for which the inhibition at 10 µM is -10% on hOCT2 [1] (setting [6]) and -7% at mOct2 [2] (setting [8]). For the same molecule, the figures for the inhibition at 100 µM at hOCT2 [1] (setting [7]) and at mOct2 [2] (setting [9]) were -27% and 4%, respectively.

Turning to `Cc1ccc(/N=C/N(C)/C=N/c2ccc(C)cc2C)c(C)c1` [Amitraz], the inhibition at 10 µM at hOCT2 [1] (setting [10]) is -98%; at mOct2 [2] (setting [12]) it was -33%. Moreover, the inhibition at 100 µM on hOCT2 [1] (setting [11]) was -96%; on mOct2 [2] (setting [13]) it was -12%.

Consider `CCNc1nc(Cl)nc(NC(C)C)n1` [Atrazin], for which the figures for the inhibition at 10 µM at hOCT2 [1] (setting [10]) and at mOct2 [2] (setting [12]) were -57% and -44%, respectively. Further, the results for the inhibition at 100 µM at hOCT2 [1] (setting [11]) and at mOct2 [2] (setting [13]) were -53% and -27%, respectively.

Regarding `CO/C=C(/C(=O)OC)c1ccccc1Oc1cc(Oc2ccccc2C#N)ncn1` [Azoxystrobin], the “Inhibitory Effects (%) hOCT2 10 µM Mean” value at hOCT2 [1] (setting [14]) is −40%. The “Inhibitory Effects (%) hOCT2 100 µM Mean” value on hOCT2 [1] (setting [15]) is −14%. Further, the “Inhibitory Effects (%) mOct2 10 µM Mean” value at mOct2 [2] (setting [14]) is recorded as −6%. For the same molecule, the “Inhibitory Effects (%) mOct2 100 µM Mean” value at mOct2 [2] (setting [15]) is reported as −17%.

As for `CN/C(=N/CCSCc1nc[nH]c1C)NC#N` [Cimetidine], the inhibition at 10 µM at hOCT2 [1] (setting [6]) was -50%; on mOct2 [2] (setting [8]), -42%. Further, the inhibition at 100 µM is -17% on hOCT2 [1] (setting [7]) and 24% on mOct2 [2] (setting [9]).

For `O=C(O)CNCP(=O)(O)O` [Glyphosat], the inhibition at 10 µM on hOCT2 [1] (setting [10]) was -24%; on mOct2 [2] (setting [12]), -13%. In addition, the inhibition at 100 µM on hOCT2 [1] (setting [11]) is -48%; on mOct2 [2] (setting [13]) it was -31%.

As for `C=CCOC(Cn1ccnc1)c1ccc(Cl)cc1Cl` (centres unmarked) [Imazalil], the IC50 against mOct2 [3] came out at 23 ± 6 µM; against hOCT2 [1], 4.7 µM; against hOCT2 [4] it was 51 ± 16 µM; on mOct2 [2], 0.58 µM. Further, the inhibition at 10 µM at hOCT2 [1] (setting [10]) was found to be 52%; at mOct2 [2] (setting [12]) it was 83%. Moreover, the inhibition at 100 µM at hOCT2 [1] (setting [11]) is 93%; on mOct2 [2] (setting [13]) it was 97%. The “Fold higher IC50 for hOCT2 than for mOct2” value at hOCT2 [4] (MPP as substrate) amounted to 2 fold. The “Fold higher inhibitory potency to mouse than to human OCT2 (IC50 ratio)” value at mOct2 [2] (metformin as substrate) stood at 8 fold.

As to `O=[N+]([O-])NC1=NCCN1Cc1ccc(Cl)nc1` [Imidacloprid], the inhibition at 10 µM was -74% at hOCT2 [1] (setting [10]) and -52% at mOct2 [2] (setting [12]). Further, the figures for the inhibition at 100 µM on hOCT2 [1] (setting [11]) and at mOct2 [2] (setting [13]) were -43% and -29%, respectively.

With `CCCN(CCOc1c(Cl)cc(Cl)cc1Cl)C(=O)n1ccnc1` [Prochloraz], the inhibition at 10 µM was -43% at hOCT2 [1] (setting [10]) and -13% at mOct2 [2] (setting [12]). The inhibition at 100 µM was -17% on hOCT2 [1] (setting [11]) and 10% at mOct2 [2] (setting [13]).

For the molecule `CCCOC(=O)NCCCN(C)C` [Propamocarb], the “Inhibitory Effects (%) hOCT2 10 µM Mean” value on hOCT2 [1] (setting [14]) is recorded as “negligible”. Further, the values for the inhibition at 10 µM at hOCT2 [1] (setting [16]) and at mOct2 [2] (setting [18]) were 1% and -9%, respectively. In addition, the inhibition at 100 µM on hOCT2 [1] (setting [17]) came to 55%; at mOct2 [2] (setting [19]) it was 48%. At mOct2 [2] (setting [14]), the “Inhibitory Effects (%) mOct2 10 µM Mean” value is reported as “negligible”.

On to `C=C[C@H]1C[N@@]2CC[C@H]1C[C@@H]2[C@@H](O)c1ccnc2ccc(OC)cc12` [Quinidine], for which the inhibition at 10 µM was -50% at hOCT2 [1] (setting [16]) and -38% on mOct2 [2] (setting [8]). For the same molecule, the inhibition at 100 µM was -31% at hOCT2 [1] (setting [17]) and -28% at mOct2 [2] (setting [9]).

Regarding `COC(=O)[C@H]1[C@H]2C[C@@H]3c4[nH]c5cc(OC)ccc5c4CCN3C[C@H]2C[C@@H](OC(=O)c2cc(OC)c(OC)c(OC)c2)[C@@H]1OC` [Reserpine], the inhibition at 10 µM on hOCT2 [1] (setting [6]) was -13%; at mOct2 [2] (setting [18]) it was -27%. Besides, the results for the inhibition at 100 µM on hOCT2 [1] (setting [7]) and at mOct2 [2] (setting [19]) were -27% and -19%, respectively.

Consider `COc1ccc(CCN(C)CCCC(C#N)(c2ccc(OC)c(OC)c2)C(C)C)cc1OC` (centres unmarked) [Verapamil], for which the inhibition at 10 µM on hOCT2 [1] (setting [10]) is -8%; on mOct2 [2] (setting [12]), 23%. The inhibition at 100 µM came out at 44% at hOCT2 [1] (setting [11]) and 73% on mOct2 [2] (setting [13]).

With `O[C@@H](COc1cccc2ncccc12)CN1CCN([C@@H]2c3ccccc3[C@@H]3[C@H](c4ccccc42)C3(F)F)CC1` [Zosuquidar], the figures for the inhibition at 10 µM at hOCT2 [1] (setting [6]) and at mOct2 [2] (setting [8]) were -10% and -11%, respectively. Further, the inhibition at 100 µM at hOCT2 [1] (setting [7]) was -47%; on mOct2 [2] (setting [9]), -30%.

B1: hOCT2 (Homo sapiens) (protein)
chain: T1 sequence (O15244 1-555)
Take B1: the Km in data set [5] was found to be 62 µM.

The IC50 is the point on the concentration scale where inhibition reaches its midpoint. One may read the Km as the concentration of substrate that gives half-maximal velocity.
